In patent US8211695B2, “Isolated transgenic mammalian neural cell for detection of a sample containing a chemical substance damage to neurological system or selection of drugs for treating neurodegenerative disorders” (Taipei Medical University, priority 2010, dated 2012):

System: AhR
Experiment: DRE driven luciferase activity of C6 DRE stable clone (pGL-2 pro/DRE) and pGL2 control cell line
Assay type: cell-based, rat
Conditions: C6 glioma cells, pGL-2 pro/DRE stable clone versus pGL2 control cell line; FIG. 1
Text: The plasmid pGL-2 pro/DRE was constructed by inserting a synthesized DNA fragment containing three rat dioxin responsive element (DRE, […] CGCAACTCGCTAGCATA; SEQ ID NO:1) between the KpnI and NheI sites of pGL2-promoter (pGL2 pro). To generate pGL-2 pro/DRE stable clones, plasmids pGL-2 pro/DRE and pCMV-Tag 2B were co-transfected into C6 glioma cells by Lipofectamine™ 2000. Meanwhile, plasmid pGL-2 pro and pCMV-Tag 2B were followed the same conditions to generate pGL-2 control cell line. These transfected cells were selected by Geneticin® (G418, 500 μg/ml) for 18 days. The stable clones of C6 cells were obtained and maintained in DMEM with 10% FBS and G418. To examine the stably insertion of pGL-2 pro/DRE or pGL-2 pro, the G418 resistant cells were harvested to extracted genomic DNA for polymerase chain reaction (PCR). The inserted DNA was confirmed to amplify 392 bps for pGL-2 pro/DRE stable insertion or 324 bps for pGL-2 pro (pGL-2) stable insertion, respectively. Finally, the metabolic degradable AhR agonist, 3-methylcholanthere (3MC), was used to examine the luciferase activity of pGL-2 pro/DRE C6 stable clones.
The metabolic degradable AhR agonist, 3-methylcholanthere (3MC), was used to examine the DRE driven luciferase activity of C6 DRE stable clone and pGL2 control cell line.

SMILES: Cc1ccc2cc3c(ccc4ccccc43)c3c2c1CC3 [3MC, 3-methylcholanthere]
- DRE driven luciferase activity (luminescence): increase luminescence in a dose response only in DRE stable clone
